From ChEMBL document CHEMBL4371011, “Pyrrolone Derivatives as Intracellular Allosteric Modulators for Chemokine Receptors: Selective and Dual-Targeting Inhibitors of CC Chemokine Receptors 1 and 2” (J Med Chem, 2018)
Where “and” joins values, the source holds several entries; their conditions need not be identical. Equal values may be shown once.

target: T1, C-C chemokine receptor type 1 (Homo sapiens, UniProt P32246); experiment: biochemical; conditions: not given
T1 sequence (P32246 whole entry): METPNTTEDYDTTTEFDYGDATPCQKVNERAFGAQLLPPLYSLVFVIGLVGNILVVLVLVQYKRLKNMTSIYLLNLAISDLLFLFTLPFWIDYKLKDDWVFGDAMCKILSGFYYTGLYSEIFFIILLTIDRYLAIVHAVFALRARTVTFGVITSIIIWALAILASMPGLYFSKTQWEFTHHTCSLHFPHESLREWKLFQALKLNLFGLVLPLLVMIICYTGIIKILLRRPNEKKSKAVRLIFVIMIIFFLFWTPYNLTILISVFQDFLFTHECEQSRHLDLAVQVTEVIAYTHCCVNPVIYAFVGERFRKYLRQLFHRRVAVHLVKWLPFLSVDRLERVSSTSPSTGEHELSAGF

Row | SMILES | Ki
1 | CC(=O)C1=C(O)C(=O)N(c2ccc(Br)cc2F)C1c1cccc(Br)c1 (configuration not stated) | 65 nM
2 | CCc1ccc(N2C(=O)C(O)=C(C(C)=O)C2C2CCCCC2)cc1 (configuration not stated) | 168 nM
3 | Cc1ccc(N2C(=O)C(O)=C(C(=O)C3CC3)C2C2CCCCC2)cc1 (configuration not stated) | 18.2 nM and 19 nM
4 | COc1ccc(N2C(=O)C(O)=C(C(C)=O)C2C2CCCCC2)cc1 (configuration not stated) | 260 nM
5 | O=C(C1=C(O)C(=O)N(c2ccc(Br)cc2F)C1C1CCCCC1)c1ccccc1 (configuration not stated) | 28 nM
6 | Cc1ccc(N2C(=O)C(O)=C(C(=O)C(C)(C)C)C2C2CCCCC2)cc1 (configuration not stated) | 22 nM
7 | Cc1ccc(N2C(=O)C(O)=C(C(=O)C(C)C)C2C2CCCCC2)cc1 (configuration not stated) | 40.7 nM and 42 nM
8 | CC(=O)C1=C(O)C(=O)N(c2cccc(Cl)c2)C1C1CCCCC1 (configuration not stated) | 525 nM and 541 nM
9 | CC(=O)C1=C(O)C(=O)N(c2cccc(C)c2)C1C1CCCCC1 (configuration not stated) | 500 nM
10 | CC(=O)C1=C(O)C(=O)N(c2ccc(Br)cc2)C1C1CCCCC1 (configuration not stated) | 24 nM
11 | CC(=O)C1=C(O)C(=O)N(c2ccc(C)cc2)C1C1CCCCCCC1 (configuration not stated) | 57 nM
12 | CCCC(=O)C1=C(O)C(=O)N(c2ccc(C)cc2)C1C1CCCCC1 (configuration not stated) | 29 nM
13 | CC(=O)C1=C(O)C(=O)N(c2ccc(Cl)cc2)C1C1CCCCC1 (configuration not stated) | 38.9 nM and 40 nM
14 | CC(=O)C1=C(O)C(=O)N(c2ccc(C)cc2)C1C1CCCCC1 (configuration not stated) | 56 nM
15 | CC(=O)C1=C(O)C(=O)N(c2ccc(C)cc2)C1c1ccc(Cl)cc1 (configuration not stated) | 67 nM
16 | CCC(=O)C1=C(O)C(=O)N(c2ccc(C)cc2)C1C1CCCCC1 (configuration not stated) | 30 nM
17 | CCCCC(=O)C1=C(O)C(=O)N(c2ccc(C)cc2)C1C1CCCCC1 (configuration not stated) | 31 nM
18 | CC(=O)C1=C(O)C(=O)N(c2ccc(C)cc2)C1C1CCCCCC1 (configuration not stated) | 56 nM
19 | CC(=O)C1=C(O)C(=O)N(c2ccc(C)c(F)c2)C1C1CCCCC1 (configuration not stated) | 47.9 nM and 49 nM

target: T2, C-C chemokine receptor type 1 (Homo sapiens) (UniProt P32246); experiment: Displacement of [3H]-CCR2-RA-[R] from human TEV protease site linked CCR1 expressed in human U20S cell membranes co-expressing Gal4-VP16 transcription factor at 1 uM after 120 mins by scintillation spectrometry relative to control; conditions: not given
T2 sequence (whole entry): T1 sequence (P32246 whole entry)

Row | SMILES | inhibition
20 | CC(=O)C1=C(O)C(=O)N(c2cccc(C(F)(F)F)c2)C1C1CCCCC1 (configuration not stated) | 25%

target: C-C chemokine receptor type 2 (Homo sapiens, UniProt P41597); experiment: Displacement of [3H]-CCR2-RA-[R] from human TEV protease site linked CCR2b expressed in human U20S cell membranes co-expressing Gal4-VP16 transcription factor after 120 mins by scintillation spectrometry; conditions: read-out: Ki
Sequence (P41597 whole entry, the tested form may be a part): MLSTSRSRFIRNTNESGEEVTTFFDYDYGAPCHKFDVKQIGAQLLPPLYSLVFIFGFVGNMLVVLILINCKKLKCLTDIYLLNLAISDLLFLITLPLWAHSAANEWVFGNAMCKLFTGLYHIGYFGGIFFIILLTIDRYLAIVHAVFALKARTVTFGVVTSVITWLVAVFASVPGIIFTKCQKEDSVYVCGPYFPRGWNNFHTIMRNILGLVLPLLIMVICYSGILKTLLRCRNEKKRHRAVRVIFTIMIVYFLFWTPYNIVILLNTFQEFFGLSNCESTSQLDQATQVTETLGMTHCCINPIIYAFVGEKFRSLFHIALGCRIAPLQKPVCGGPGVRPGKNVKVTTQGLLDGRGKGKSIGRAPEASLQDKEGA

Row | SMILES | Ki
21 | CC(=O)C1=C(O)C(=O)N(c2ccc(Br)cc2F)C1c1cccc(Br)c1 (configuration not stated) | 216 nM
22 | CCc1ccc(N2C(=O)C(O)=C(C(C)=O)C2C2CCCCC2)cc1 (configuration not stated) | 66 nM
23 | Cc1ccc(N2C(=O)C(O)=C(C(=O)C3CC3)C2C2CCCCC2)cc1 (configuration not stated) | 160 nM
24 | COc1ccc(N2C(=O)C(O)=C(C(C)=O)C2C2CCCCC2)cc1 (configuration not stated) | 217 nM
25 | O=C(C1=C(O)C(=O)N(c2ccc(Br)cc2F)C1C1CCCCC1)c1ccccc1 (configuration not stated) | 66 nM
26 | Cc1ccc(N2C(=O)C(O)=C(C(=O)C(C)(C)C)C2C2CCCCC2)cc1 (configuration not stated) | 158 nM
27 | Cc1ccc(N2C(=O)C(O)=C(C(=O)C(C)C)C2C2CCCCC2)cc1 (configuration not stated) | 316 nM
28 | CC(=O)C1=C(O)C(=O)N(c2cccc(Cl)c2)C1C1CCCCC1 (configuration not stated) | 239 nM
29 | CC(=O)C1=C(O)C(=O)N(c2cccc(C)c2)C1C1CCCCC1 (configuration not stated) | 265 nM
30 | CC(=O)C1=C(O)C(=O)N(c2ccc(Br)cc2)C1C1CCCCC1 (configuration not stated) | 17 nM
31 | CC(=O)C1=C(O)C(=O)N(c2ccc(C)cc2)C1C1CCCCCCC1 (configuration not stated) | 170 nM
32 | CCCC(=O)C1=C(O)C(=O)N(c2ccc(C)cc2)C1C1CCCCC1 (configuration not stated) | 144 nM
33 | CC(=O)C1=C(O)C(=O)N(c2cccc(C(F)(F)F)c2)C1C1CCCCC1 (configuration not stated) | 305 nM
34 | CC(=O)C1=C(O)C(=O)N(c2ccc(Cl)cc2)C1C1CCCCC1 (configuration not stated) | 19 nM
35 | CC(=O)C1=C(O)C(=O)N(c2ccc(C)cc2)C1C1CCCCC1 (configuration not stated) | 81 nM
36 | CC(=O)C1=C(O)C(=O)N(c2ccc(C)cc2)C1c1ccc(Cl)cc1 (configuration not stated) | 207 nM
37 | CCC(=O)C1=C(O)C(=O)N(c2ccc(C)cc2)C1C1CCCCC1 (configuration not stated) | 104 nM
38 | CCCCC(=O)C1=C(O)C(=O)N(c2ccc(C)cc2)C1C1CCCCC1 (configuration not stated) | 158 nM
39 | CC(=O)C1=C(O)C(=O)N(c2ccc(C)cc2)C1C1CCCCCC1 (configuration not stated) | 96 nM
40 | CC(=O)C1=C(O)C(=O)N(c2ccc(C)c(F)c2)C1C1CCCCC1 (configuration not stated) | 57 nM

same assay, conditions: read-out: pKi (converted)

Row | SMILES | Ki
41 | CCc1ccc(N2C(=O)C(O)=C(C(C)=O)C2C2CCCCC2)cc1 (configuration not stated) | 64.6 nM
42 | COc1ccc(N2C(=O)C(O)=C(C(C)=O)C2C2CCCCC2)cc1 (configuration not stated) | 214 nM
43 | Cc1ccc(N2C(=O)C(O)=C(C(=O)C(C)(C)C)C2C2CCCCC2)cc1 (configuration not stated) | 155 nM
44 | CC(=O)C1=C(O)C(=O)N(c2ccc(C)cc2)C1C1CCCCCCC1 (configuration not stated) | 162 nM
45 | CCCC(=O)C1=C(O)C(=O)N(c2ccc(C)cc2)C1C1CCCCC1 (configuration not stated) | 138 nM
46 | CC(=O)C1=C(O)C(=O)N(c2cccc(C(F)(F)F)c2)C1C1CCCCC1 (configuration not stated) | 288 nM
47 | CCCCC(=O)C1=C(O)C(=O)N(c2ccc(C)cc2)C1C1CCCCC1 (configuration not stated) | 155 nM
